Converted amounts (≈) assume the structure as drawn. Read-outs that look alike come from different tables or passages of the source. Marks after values point to notes of the source that are not given here.
How the values were obtained:
[1] = tested on: S. aureus SCV strain CF6A-S; assay: microbe, parasite or virus in culture; type: cell-based; conditions: Staphylococcus aureus
[2] = tested on: S. saprophyticus ATCC 15305; assay: MIC, microdilution, with or without tomatidine; conditions: for MIC: Staphylococcus saprophyticus
[3] = tested on: Bacillus cereus ATCC 11778; assay: Agar diffusion method, zone of inhibition; type: cell-based; conditions: ATCC11778, Tomatidine (35 μg), 24 hours at 35° C., DMSO 0, read-out: Diameter of inhibition zone
Method: (§1) The effect of tomatidine on the growth of Bacillus subtilis strains ATCC 6633 and ATCC 9372, Bacillus cereus strain ATCC 11778 and Listeria monocytogenes strain ATCC 13932 was tested by an agar diffusion method. Bacillus spp. strains and Listeria monocytogenes were spread on the surface of Mueller-Hinton agar and Mueller-Hinton supplemented with 5% sheep blood, respectively. 35 μg of tomatidine diluted in DMSO or DMSO alone were added to wells for diffusion and plates were incubated for 24 hours at 35° C. The diameters of the zones of inhibition around the wells (for the DMSO control and for the tomatidine well) were measured and reported in mm in TABLE 12 below.

[4] = tested on: Listeria monocytogenes ATCC 13932; assay: Agar diffusion method, zone of inhibition; type: cell-based; conditions: ATCC13932, Tomatidine (35 μg), 24 hours at 35° C., 5% sheep blood, DMSO 0, read-out: Diameter of inhibition zone
Method: as §1

[5] = tested on: Bacillus subtilis ATCC 9372; assay: Agar diffusion method, zone of inhibition; type: cell-based; conditions: ATCC9372, Tomatidine (35 μg), 24 hours at 35° C., DMSO 0, read-out: Diameter of inhibition zone
Method: as §1

[6] = tested on: Bacillus subtilis ATCC 6633; assay: Agar diffusion method, zone of inhibition; type: cell-based; conditions: ATCC6633, Tomatidine (35 μg), 24 hours at 35° C., DMSO 5, read-out: Diameter of inhibition zone
Method: as §1

SCV strain CF07-S = assay: Time-kill experiment (FIG. 1C); type: cell-based, Staphylococcus aureus; conditions: tomatidine at 0.25 μg/ml (2×MIC)
Method: (§2) (225 RPM), bacteria were sampled, serially diluted and plated on tryptic soy agar (TSA) for colony-forming unit (CFU) determinations (i.e., viable bacterial counts). Plates were incubated for 24 or 48 h at 35° C. for normal and SCV strains, respectively. The antibacterial activities of tomatidine and control antibiotics (erythromycin (a bacteriostatic macrolide) and ciprofloxacin (a bactericidal fluoroquinolone) against the normal CF07-L strain and the SCV CF07-S as a function of time are presented in FIGS. 1B and 1C, respectively. The antibacterial activity of tomatine against the SCV strain was also evaluated (TN in FIG. 1C).

normal CF07-L strain = assay: Time-kill experiment (FIG. 1B); type: cell-based, Staphylococcus aureus; conditions: tomatidine 16 μg/ml
Method: as §2

[7] = tested on: S. aureus ATCC 29213 alone; assay: Viability in mono-culture, CAMHB; type: cell-based, Staphylococcus aureus; conditions: SA alone + TO at 8 μg/ml
Text: (§3) Bacteria were sampled, serially diluted and plated on tryptic soy agar for CFU determinations. […] Mannitol-salt agar plates were used to selectively evaluate S. aureus CFU when in co-culture with P. aeruginosa.

[8] = tested on: normal S. aureus strain CF07-L; assay: Broth growth with HQNO and/or tomatidine, visually evaluated (FIG. 2); type: cell-based, Staphylococcus aureus; conditions: combination of HQNO (20 μg/ml) and tomatidine (8 μg/ml), 48 h
Method: The MICs of tomatidine, tomatine and control antibiotics (gentamicin, vancomycin, erythromycin, ciprofloxacin and oxacillin) were determined against the normal strains ATCC 29213 and CF07-L as well as against the SCV strain CF07-S in the presence of 20 μg HQNO/ml.

S. aureus SCV CF41A-S = assay: microbe, parasite or virus in culture; type: cell-based; conditions: Staphylococcus aureus, SCVCF41AS, 24 h, read-out: Diameter of inhibition zone
[9] = tested on: Clostridium perfringens ATCC 13124; assay: microbe, parasite or virus in culture; type: cell-based; conditions: ATCC13124, 48 h, read-out: Diameter of inhibition zone
[10] = tested on: S. aureus ATCC 29213 in co-culture with P. aeruginosa PA14; assay: Viability in co-culture with P. aeruginosa PA14, CAMHB; type: cell-based, Staphylococcus aureus; conditions: for Viability of S. aureus: SA + PA + TO at 8 μg/ml
Text: as §3

SCV CF07-S [11] = assay: Tomatidine susceptibility with supplemental menadione, spotted on agar (FIG. 1A); type: cell-based, Staphylococcus aureus; conditions: in the presence of supplemental menadione
Method: Normal (Newbould, CF07-L and CF1A-L), and SCV (NewbouldΔhemB (in the presence and absence of hemin), CF07-S (in the presence and absence of menadione) and CF1D-S) S. aureus strains were treated with various concentrations of tomatidine (4, 2, 1, 0.5, 0.25, 0.12 and 0.06 μg/ml) for 48 h in the Brain Hearth Infusion (BHI) medium at 35° C. and 10 μl samples were thereafter spotted on agar plated which were further incubated for 48 h before a picture was taken.

[12] = tested on: SCV strain CF07-S in shCFTR cells; assay: Intracellular infection of polarized CF airway epithelial cells (shCFTR); type: cell-based, Staphylococcus aureus; conditions: 1.25 and 12.5 μg/ml of tomatidine; 48 h post-internalization; FIG. 4B
[13] = tested on: protein, DNA, RNA and cell wall peptidoglycan biosynthesis in ATCC 29213; assay: Macromolecular biosynthesis assay, incorporation of radiolabeled precursors; type: cell-based, Staphylococcus aureus
[14] = tested on: S. aureus SCV NewbouldΔhemB; assay: microbe, parasite or virus in culture; type: cell-based; conditions: Staphylococcus aureus, 24 h, read-out: Diameter of inhibition zone
SCV CF07-S [15] = assay: Broth growth with gentamicin or tomatidine, visually evaluated (FIG. 5B); conditions: gentamicin at 4 μg/ml or tomatidine at 0.12 μg/ml alone, 48 h

NC[C@H]1O[C@H](O[C@H]2[C@H](O)[C@@H](O[C@H]3O[C@H](CO)[C@@H](O)[C@H](N)[C@H]3O)[C@H](N)C[C@@H]2N)[C@H](N)C[C@@H]1O [Tobramycin, tobramycin]
MIC [1]: > 32 µg/mL
Fold (−TO/+TO) ([2]; S. saprophyticus ATCC 15305, 8 μg/ml of tomatidine): 8 fold
MIC ([2]; ATCC15305, read-out: MIC +TO): 0.016 µg/mL (≈ 0.0342 µM)
MIC ([2]; ATCC15305, read-out: MIC −TO): 0.12 µg/mL (≈ 0.257 µM)

C[C@H]1CC[C@]2(NC1)O[C@H]1C[C@H]3[C@@H]4CC[C@H]5C[C@@H](O)CC[C@]5(C)[C@H]4CC[C@]3(C)[C@H]1[C@@H]2C [Tomatidine, tomatidine]
zone of inhibition at 35 µg/disc [3]: 21.5 mm
zone of inhibition at 35 µg/disc [4]: 12.5 mm
zone of inhibition at 35 µg/disc [5]: 25.5 mm
zone of inhibition at 35 µg/disc [6]: 25.5 mm
time-kill effect on growth and viability (SCV strain CF07-S): induced bacteriostasis
time-kill effect on growth (normal CF07-L strain): does not affect the growth
Viability of S. aureus ([7]; 0 h): 5.1 ± 0.4 Log10 CFU/ml
Viability of S. aureus ([7]; 24 h): 9.64 ± 0.08 Log10 CFU/ml
growth, visually evaluated [8]: inhibitory activity
zone of inhibition at 50 µg/disc (S. aureus SCV CF41A-S): 21.5 mm
zone of inhibition at 50 µg/disc [9]: 11 mm
Viability of S. aureus ([10]; 0 h): 5.4 ± 0.1 Log10 CFU/ml
Viability of S. aureus ([10]; 24 h): 2 ± 1 ^b Log10 CFU/ml
type of antibacterial effect ([10]; in co-culture with P. aeruginosa, tomatidine 8 μg/ml): bactericidal
susceptibility to tomatidine (SCV CF07-S [11]): abolished
intracellular SCVs CF07-S vs DMSO-treated control cells [12]: significantly less
biosynthesis of macromolecules ([13]; in the presence of 20 μg HQNO/ml, all tested concentrations above 0.12 μg/ml, FIG. 3C): decreased the biosynthesis of all macromolecules
synthesis of macromolecules ([13]; tomatidine up to 125 μg/ml, no HQNO, vs DMSO-treated control, FIG. 3B): did not alter the synthesis of any macromolecule
zone of inhibition at 50 µg/disc [14]: 23.5 mm

gentamicin
growth, visually evaluated (SCV CF07-S [15]): does not inhibit the growth

Reference: patent US9457033B2, “Steroid alkaloids and uses thereof as antimicrobial agents against electron transport-deficient microbes and as potentiators for antimicrobial agents against pathogenic bacteria” (priority 2011, dated 2016)
